In paper PMC8371461 (Frontiers in Pharmacology, 2021):

How the values were obtained:
[1] = biological target: T1, EGFR(L747-S752delP753S) (Homo sapiens, UniProt P00533, DEL747-752/P753S); experiment: kinome scan; assay type: binding; details: 10 µM
T1 construct: purchased DiscoverX (KINOMEscan)

[2] = biological target: T2, MAP4K4 (Homo sapiens, UniProt O95819); experiment: kinome scan; assay type: binding; details: 10 µM
T2 construct: purchased DiscoverX (KINOMEscan)

[3] = biological target: T3, SNRK (Homo sapiens, UniProt Q9NRH2); experiment: kinome scan; assay type: binding; details: 10 µM
T3 construct: purchased DiscoverX (KINOMEscan)

[4] = biological target: T4, p38-gamma (Homo sapiens, UniProt P53778); experiment: kinome scan; assay type: binding; details: 10 µM
T4 construct: purchased DiscoverX (KINOMEscan)

[5] = biological target: T5, PIM2 (Homo sapiens, UniProt Q9P1W9); experiment: kinome scan; assay type: binding; details: 10 µM
T5 construct: purchased DiscoverX (KINOMEscan)

[6] = biological target: T6, MARK3 (Homo sapiens, UniProt P27448); experiment: kinome scan; assay type: binding; details: 10 µM
T6 construct: purchased DiscoverX (KINOMEscan)

[7] = biological target: T7, NEK3 (Homo sapiens, UniProt P51956); experiment: kinome scan; assay type: binding; details: 10 µM
T7 construct: purchased DiscoverX (KINOMEscan)

[8] = biological target: T8, STK33 (Homo sapiens, UniProt Q9BYT3); experiment: kinome scan; assay type: binding; details: 10 µM
T8 construct: purchased DiscoverX (KINOMEscan)

[9] = biological target: T9, PRKCQ (Homo sapiens, UniProt Q04759); experiment: kinome scan; assay type: binding; details: 10 µM
T9 construct: purchased DiscoverX (KINOMEscan)

[10] = biological target: T10, MEK6 (Homo sapiens, UniProt P52564); experiment: kinome scan; assay type: binding; details: 10 µM
T10 construct: purchased DiscoverX (KINOMEscan)

[11] = biological target: T11, ACVR2B (Homo sapiens, UniProt Q13705); experiment: kinome scan; assay type: binding; details: 10 µM
T11 construct: purchased DiscoverX (KINOMEscan)

[12] = biological target: T12, EIF2AK1 (Homo sapiens, UniProt Q9BQI3); experiment: kinome scan; assay type: binding; details: 10 µM
T12 construct: purchased DiscoverX (KINOMEscan)

[13] = biological target: T13, DAPK2 (Homo sapiens, UniProt Q9UIK4); experiment: kinome scan; assay type: binding; details: 10 µM
T13 construct: purchased DiscoverX (KINOMEscan)

[14] = biological target: T14, DCAMKL2 (Homo sapiens, UniProt Q8N568); experiment: kinome scan; assay type: binding; details: 10 µM
T14 construct: purchased DiscoverX (KINOMEscan)

[15] = biological target: T15, TIE2 (Homo sapiens, UniProt Q02763); experiment: kinome scan; assay type: binding; details: 10 µM
T15 construct: purchased DiscoverX (KINOMEscan)

[16] = biological target: T16, CLK2 (Homo sapiens, UniProt P49760); experiment: kinome scan; assay type: binding; details: 10 µM
T16 construct: purchased DiscoverX (KINOMEscan)

[17] = biological target: T17, MET(Y1235D) (Homo sapiens, UniProt P08581, Y1235D); experiment: kinome scan; assay type: binding; details: 10 µM
T17 construct: purchased DiscoverX (KINOMEscan)

[18] = biological target: T18, SNARK (Homo sapiens, UniProt Q9H093); experiment: kinome scan; assay type: binding; details: 10 µM
T18 construct: purchased DiscoverX (KINOMEscan)

[19] = biological target: T19, FER (Homo sapiens, UniProt P16591); experiment: kinome scan; assay type: binding; details: 10 µM
T19 construct: purchased DiscoverX (KINOMEscan)

[20] = biological target: T20, PIK3CA (Homo sapiens, UniProt P42336); experiment: kinome scan; assay type: binding; details: 10 µM
T20 construct: purchased DiscoverX (KINOMEscan)

[21] = biological target: T21, AURKB (Homo sapiens, UniProt Q96GD4); experiment: kinome scan; assay type: binding; details: 10 µM
T21 construct: purchased DiscoverX (KINOMEscan)

[22] = biological target: T22, MAP4K5 (Homo sapiens, UniProt Q9Y4K4); experiment: kinome scan; assay type: binding; details: 10 µM
T22 construct: purchased DiscoverX (KINOMEscan)

[23] = biological target: T23, EPHB2 (Homo sapiens, UniProt P29323); experiment: kinome scan; assay type: binding; details: 10 µM
T23 construct: purchased DiscoverX (KINOMEscan)

[24] = biological target: T24, ABL2 (Homo sapiens, UniProt P42684); experiment: kinome scan; assay type: binding; details: 10 µM
T24 construct: purchased DiscoverX (KINOMEscan)

[25] = biological target: T25, PYK2 (Homo sapiens, UniProt Q14289); experiment: kinome scan; assay type: binding; details: 10 µM
T25 construct: purchased DiscoverX (KINOMEscan)

[26] = biological target: T26, ABL1-phosphorylated (Homo sapiens, UniProt P00519); experiment: kinome scan; assay type: binding; details: 10 µM
T26 construct: purchased DiscoverX (KINOMEscan)

[27] = biological target: TYK2 (Homo sapiens, UniProt P29597); experiment: Kd select analysis (DiscoverX); assay type: binding
Protocol: Hits are identified by an ultra-sensitive quantitative PCR detecting the specific DNA tag linked to each kinase (Supplementary Figure S2). The drug is used at a concentration of 10 µM and results are expressed as the percentage of signal (kinase PCR detection) with respect to DMSO control conditions. […] Interactions between 0 and 20% of reduction were considered to be the most significant ones.

[28] = biological target: T27, ALK (Homo sapiens, UniProt Q9UM73); experiment: kinome scan; assay type: binding; details: 10 µM
T27 construct: purchased DiscoverX (KINOMEscan)

[29] = biological target: T28, NEK9 (Homo sapiens, UniProt Q8TD19); experiment: kinome scan; assay type: binding; details: 10 µM
T28 construct: purchased DiscoverX (KINOMEscan)

[30] = biological target: T29, MEK1 (Homo sapiens, UniProt Q02750); experiment: kinome scan; assay type: binding; details: 10 µM
T29 construct: purchased DiscoverX (KINOMEscan)

[31] = biological target: T30, MAPKAPK5 (Homo sapiens, UniProt Q8IW41); experiment: kinome scan; assay type: binding; details: 10 µM
T30 construct: purchased DiscoverX (KINOMEscan)

[32] = biological target: T31, DYRK1B (Homo sapiens, UniProt Q9Y463); experiment: kinome scan; assay type: binding; details: 10 µM
T31 construct: purchased DiscoverX (KINOMEscan)

[33] = biological target: T32, FES (Homo sapiens, UniProt P07332); experiment: kinome scan; assay type: binding; details: 10 µM
T32 construct: purchased DiscoverX (KINOMEscan)

[34] = biological target: T33, RIOK1 (Homo sapiens, UniProt Q9BRS2); experiment: kinome scan; assay type: binding; details: 10 µM
T33 construct: purchased DiscoverX (KINOMEscan)

[35] = biological target: T34, NLK (Homo sapiens, UniProt Q9UBE8); experiment: kinome scan; assay type: binding; details: 10 µM
T34 construct: purchased DiscoverX (KINOMEscan)

[36] = biological target: T35, PLK1 (Homo sapiens, UniProt P53350); experiment: kinome scan; assay type: binding; details: 10 µM
T35 construct: purchased DiscoverX (KINOMEscan)

[37] = test system: Tau Fibril Formation, Thioflavin T Binding; parameters: method as in CHEMBL1614421; details: reported activity, data mining; ref CHEMBL1614421; cited from earlier work
[38] = test system: Mitochondrial membrane potential; parameters: method as in CHEMBL1614240; details: reported activity, data mining; ref CHEMBL1614240; cited from earlier work
[39] = biological target: T36, WEE2 (Homo sapiens, UniProt P0C1S8); experiment: kinome scan; assay type: binding; details: 10 µM
T36 construct: purchased DiscoverX (KINOMEscan)

[40] = biological target: T37, KIT(A829P) (Homo sapiens, UniProt P10721, A829P); experiment: kinome scan; assay type: binding; details: 10 µM
T37 construct: purchased DiscoverX (KINOMEscan)

[41] = biological target: T38, FAK (Homo sapiens, UniProt Q05397); experiment: kinome scan; assay type: binding; details: 10 µM
T38 construct: purchased DiscoverX (KINOMEscan)

[42] = biological target: T39, RSK1(Kin.Dom.1-N-terminal) (Homo sapiens, UniProt Q15418); experiment: kinome scan; assay type: binding; details: 10 µM
T39 construct: RSK1(Kin.Dom.1-N-terminal); purchased DiscoverX (KINOMEscan)

T27 sequence (Q9UM73 19-1620): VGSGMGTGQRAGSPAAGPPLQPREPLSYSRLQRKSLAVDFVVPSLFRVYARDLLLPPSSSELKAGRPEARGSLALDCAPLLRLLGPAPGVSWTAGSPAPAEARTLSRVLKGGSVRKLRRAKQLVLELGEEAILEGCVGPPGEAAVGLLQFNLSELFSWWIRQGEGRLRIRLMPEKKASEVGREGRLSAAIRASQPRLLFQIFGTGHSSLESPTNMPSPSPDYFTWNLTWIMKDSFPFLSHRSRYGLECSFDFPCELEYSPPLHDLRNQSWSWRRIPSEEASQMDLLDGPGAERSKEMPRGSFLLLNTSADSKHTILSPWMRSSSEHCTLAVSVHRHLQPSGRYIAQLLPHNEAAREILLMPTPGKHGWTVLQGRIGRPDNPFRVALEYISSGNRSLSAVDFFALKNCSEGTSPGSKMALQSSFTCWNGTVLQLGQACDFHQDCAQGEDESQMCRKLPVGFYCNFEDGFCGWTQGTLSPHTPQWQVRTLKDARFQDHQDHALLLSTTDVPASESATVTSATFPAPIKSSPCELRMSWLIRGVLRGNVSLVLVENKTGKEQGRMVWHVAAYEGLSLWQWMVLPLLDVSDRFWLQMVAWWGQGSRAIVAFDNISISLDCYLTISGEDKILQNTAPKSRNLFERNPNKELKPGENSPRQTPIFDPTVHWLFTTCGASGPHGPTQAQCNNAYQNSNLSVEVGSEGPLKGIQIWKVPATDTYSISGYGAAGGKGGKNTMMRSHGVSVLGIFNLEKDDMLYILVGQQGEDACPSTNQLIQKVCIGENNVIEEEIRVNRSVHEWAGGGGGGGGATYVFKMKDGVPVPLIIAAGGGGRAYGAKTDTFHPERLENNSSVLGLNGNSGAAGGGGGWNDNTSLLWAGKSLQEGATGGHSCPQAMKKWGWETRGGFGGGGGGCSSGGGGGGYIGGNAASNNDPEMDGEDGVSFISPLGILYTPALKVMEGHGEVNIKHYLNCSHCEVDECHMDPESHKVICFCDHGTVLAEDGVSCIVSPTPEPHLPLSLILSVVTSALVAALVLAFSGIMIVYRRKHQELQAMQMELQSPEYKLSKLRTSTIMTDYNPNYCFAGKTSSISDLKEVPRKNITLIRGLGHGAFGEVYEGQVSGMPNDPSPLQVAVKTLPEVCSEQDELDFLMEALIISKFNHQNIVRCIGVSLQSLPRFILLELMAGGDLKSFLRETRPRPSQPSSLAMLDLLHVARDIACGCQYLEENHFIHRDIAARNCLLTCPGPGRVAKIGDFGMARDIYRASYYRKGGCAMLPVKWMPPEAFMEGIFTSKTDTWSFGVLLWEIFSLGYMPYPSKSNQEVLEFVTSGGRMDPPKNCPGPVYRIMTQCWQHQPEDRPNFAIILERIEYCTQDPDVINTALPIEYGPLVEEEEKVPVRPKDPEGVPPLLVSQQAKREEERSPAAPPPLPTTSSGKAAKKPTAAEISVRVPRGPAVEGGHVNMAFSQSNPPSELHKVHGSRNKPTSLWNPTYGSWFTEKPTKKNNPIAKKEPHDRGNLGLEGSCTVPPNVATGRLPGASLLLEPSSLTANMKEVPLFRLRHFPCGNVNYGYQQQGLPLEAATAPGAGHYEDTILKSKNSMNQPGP
T34 sequence (Q9UBE8 whole entry): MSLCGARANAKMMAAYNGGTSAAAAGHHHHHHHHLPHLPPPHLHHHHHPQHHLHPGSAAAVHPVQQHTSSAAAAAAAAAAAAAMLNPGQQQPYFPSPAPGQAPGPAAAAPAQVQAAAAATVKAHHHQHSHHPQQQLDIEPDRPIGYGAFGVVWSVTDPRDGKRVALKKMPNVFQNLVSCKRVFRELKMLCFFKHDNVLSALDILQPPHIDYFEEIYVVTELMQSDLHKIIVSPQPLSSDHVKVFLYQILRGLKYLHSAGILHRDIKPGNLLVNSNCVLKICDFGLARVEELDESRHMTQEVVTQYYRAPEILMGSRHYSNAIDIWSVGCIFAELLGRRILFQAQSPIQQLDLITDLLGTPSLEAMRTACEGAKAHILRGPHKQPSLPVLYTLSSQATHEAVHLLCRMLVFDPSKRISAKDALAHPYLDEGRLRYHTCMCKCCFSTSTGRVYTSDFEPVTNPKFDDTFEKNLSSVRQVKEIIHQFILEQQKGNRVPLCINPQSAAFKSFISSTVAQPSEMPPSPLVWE
T22 sequence (Q9Y4K4 whole entry): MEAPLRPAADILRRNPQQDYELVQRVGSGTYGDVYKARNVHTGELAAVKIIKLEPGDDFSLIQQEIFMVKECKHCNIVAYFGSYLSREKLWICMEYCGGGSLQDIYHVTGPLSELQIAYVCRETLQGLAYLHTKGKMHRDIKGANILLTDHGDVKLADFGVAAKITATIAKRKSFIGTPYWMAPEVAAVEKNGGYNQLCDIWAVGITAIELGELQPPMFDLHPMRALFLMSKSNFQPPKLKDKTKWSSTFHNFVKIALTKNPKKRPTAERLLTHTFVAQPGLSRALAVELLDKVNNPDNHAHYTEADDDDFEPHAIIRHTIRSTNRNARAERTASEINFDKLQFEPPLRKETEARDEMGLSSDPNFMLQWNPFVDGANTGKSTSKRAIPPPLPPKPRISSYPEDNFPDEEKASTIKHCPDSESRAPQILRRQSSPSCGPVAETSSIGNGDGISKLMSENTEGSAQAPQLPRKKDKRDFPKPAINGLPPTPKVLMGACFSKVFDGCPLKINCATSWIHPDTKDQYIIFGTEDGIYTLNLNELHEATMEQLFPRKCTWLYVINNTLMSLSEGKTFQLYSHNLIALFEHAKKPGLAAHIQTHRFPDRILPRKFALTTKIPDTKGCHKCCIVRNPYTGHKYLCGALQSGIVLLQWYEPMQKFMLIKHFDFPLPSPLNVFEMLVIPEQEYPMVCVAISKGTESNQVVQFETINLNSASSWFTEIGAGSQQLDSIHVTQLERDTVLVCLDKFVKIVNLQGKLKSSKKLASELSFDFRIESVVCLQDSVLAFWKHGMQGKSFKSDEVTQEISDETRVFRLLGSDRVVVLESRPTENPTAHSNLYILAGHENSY
T25 sequence (Q14289 whole entry): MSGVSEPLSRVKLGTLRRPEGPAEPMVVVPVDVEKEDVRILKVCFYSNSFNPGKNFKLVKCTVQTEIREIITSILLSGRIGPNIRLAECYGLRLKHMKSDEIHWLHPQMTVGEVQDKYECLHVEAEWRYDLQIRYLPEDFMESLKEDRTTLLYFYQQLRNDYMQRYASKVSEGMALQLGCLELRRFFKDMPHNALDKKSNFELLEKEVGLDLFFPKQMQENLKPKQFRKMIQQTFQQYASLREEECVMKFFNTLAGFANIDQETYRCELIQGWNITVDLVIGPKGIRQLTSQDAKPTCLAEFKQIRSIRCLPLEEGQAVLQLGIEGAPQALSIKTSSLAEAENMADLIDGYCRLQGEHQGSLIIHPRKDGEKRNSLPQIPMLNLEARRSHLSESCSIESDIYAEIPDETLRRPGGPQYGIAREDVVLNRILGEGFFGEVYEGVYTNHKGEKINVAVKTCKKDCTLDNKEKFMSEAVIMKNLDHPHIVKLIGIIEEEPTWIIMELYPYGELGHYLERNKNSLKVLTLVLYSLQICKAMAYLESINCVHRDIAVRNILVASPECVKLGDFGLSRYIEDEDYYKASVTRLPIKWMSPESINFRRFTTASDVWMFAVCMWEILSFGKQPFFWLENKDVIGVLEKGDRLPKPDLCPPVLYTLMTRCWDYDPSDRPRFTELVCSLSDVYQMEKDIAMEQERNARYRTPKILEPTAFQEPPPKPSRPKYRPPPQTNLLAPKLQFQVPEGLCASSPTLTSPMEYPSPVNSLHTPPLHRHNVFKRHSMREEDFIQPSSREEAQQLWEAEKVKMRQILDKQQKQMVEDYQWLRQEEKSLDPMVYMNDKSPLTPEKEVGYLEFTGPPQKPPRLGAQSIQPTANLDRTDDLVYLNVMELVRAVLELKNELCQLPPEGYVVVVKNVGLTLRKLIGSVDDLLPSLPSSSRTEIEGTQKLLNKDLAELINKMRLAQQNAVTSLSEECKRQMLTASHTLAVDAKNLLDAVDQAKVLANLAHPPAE
T29 sequence (Q02750 whole entry): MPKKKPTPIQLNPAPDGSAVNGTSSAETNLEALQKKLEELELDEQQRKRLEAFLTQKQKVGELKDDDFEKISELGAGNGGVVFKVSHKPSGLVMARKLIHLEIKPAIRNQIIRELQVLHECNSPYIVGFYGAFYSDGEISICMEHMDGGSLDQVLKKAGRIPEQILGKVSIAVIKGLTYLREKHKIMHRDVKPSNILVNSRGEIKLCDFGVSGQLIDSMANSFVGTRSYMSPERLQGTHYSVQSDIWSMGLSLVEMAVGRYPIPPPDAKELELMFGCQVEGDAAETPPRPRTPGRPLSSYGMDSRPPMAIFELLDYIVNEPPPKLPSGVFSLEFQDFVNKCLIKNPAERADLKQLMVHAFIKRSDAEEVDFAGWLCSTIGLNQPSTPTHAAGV
T12 sequence (Q9BQI3 whole entry): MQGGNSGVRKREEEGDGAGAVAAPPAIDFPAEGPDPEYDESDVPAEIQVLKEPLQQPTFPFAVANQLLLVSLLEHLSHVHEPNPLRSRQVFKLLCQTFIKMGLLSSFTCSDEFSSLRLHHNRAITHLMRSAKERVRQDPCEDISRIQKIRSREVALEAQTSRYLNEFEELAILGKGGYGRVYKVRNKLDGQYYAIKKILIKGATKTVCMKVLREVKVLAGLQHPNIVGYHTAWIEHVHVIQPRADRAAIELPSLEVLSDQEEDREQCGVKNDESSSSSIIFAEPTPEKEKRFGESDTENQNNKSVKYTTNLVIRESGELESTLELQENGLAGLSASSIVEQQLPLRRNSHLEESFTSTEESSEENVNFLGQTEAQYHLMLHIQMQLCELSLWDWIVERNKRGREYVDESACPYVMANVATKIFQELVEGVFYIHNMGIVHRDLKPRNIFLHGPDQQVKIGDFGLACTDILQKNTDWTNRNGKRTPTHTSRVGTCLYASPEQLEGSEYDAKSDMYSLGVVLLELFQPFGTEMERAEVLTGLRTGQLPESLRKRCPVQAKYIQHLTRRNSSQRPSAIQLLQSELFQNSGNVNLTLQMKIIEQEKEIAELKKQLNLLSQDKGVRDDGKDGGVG

SMILES: Nc1ccc(N=Nc2ccccc2)c(N)n1 [phenazopyridine, 2,6-diamino-3-(phenylazo)pyridine]
- kinase inhibition [1]: 73
- kinase inhibition [2]: 100
- kinase inhibition [3]: 100
- kinase inhibition [4]: 100
- kinase inhibition [5]: 100
- kinase inhibition [6]: 100
- kinase inhibition [7]: 100
- kinase inhibition [8]: 100
- kinase inhibition [9]: 81
- kinase inhibition [10]: 95
- kinase inhibition [11]: 84
- kinase inhibition [12]: 100
- kinase inhibition [13]: 100
- kinase inhibition [14]: 89
- kinase inhibition [15]: 98
- kinase inhibition [16]: 75
- kinase inhibition [17]: 100
- kinase inhibition [18]: 87
- kinase inhibition [19]: 100
- kinase inhibition [20]: 84
- kinase inhibition [21]: 72
- kinase inhibition [22]: 100
- kinase inhibition [23]: 70
- kinase inhibition [24]: 96
- kinase inhibition [25]: 100
- kinase inhibition [26]: 67
- Kd [27]: 26 µM
- kinase inhibition [28]: 89
- kinase inhibition [29]: 100
- kinase inhibition [30]: 99
- kinase inhibition [31]: 100
- remaining binding (% of control) [32]: 69
- kinase inhibition [33]: 100
- remaining binding (% of control) [34]: 93
- kinase inhibition [35]: 88
- remaining binding (% of control) [36]: 79
- Concentration [37]: 3.9 µM
- Concentration [38]: 16.7 µM
- kinase inhibition [39]: 100
- kinase inhibition [40]: 95
- kinase inhibition [41]: 96
- kinase inhibition [42]: 80
